Values joined by “and” are separate entries in the source; they are usually repeats but may differ in a detail not shown here. Equal values may be shown once. Toxic doses and inconclusive results are not listed. The calls were made as follows: active = survival T/C of 150% or more; inactive = T/C below 125% in these data. Residues, ends and D or L forms follow the SMILES beside them. *: point of attachment. Trt = c1ccc(C(c2ccccc2)(c2ccccc2)*)cc1
System: BDF1 mice, P388 leukemia ip, median survival T/C
Test: NCI In Vivo Anticancer Drug Screen. Data for tumor model P388 Leukemia (intraperitoneal) in B6D2F1 (BDF1) mice
Conditions: endpoint: median survival time, higher = longer survival
How it was run: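 Steps: implant the tumour, treat one group with compound and another with vehicle, record survival, then divide treated by control.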

[1] = dose: 25.0 mg/kg/injection, schedule: Q01DX009 (ip), vehicle: saline with Tween-80
[2] = dose: 75.0 mg/kg/injection, schedule: Q01DX009 (ip), vehicle: saline with Tween-80
[3] = dose: 150.0 mg/kg/injection, schedule: Q01DX009 (ip), vehicle: saline with Tween-80
[4] = dose: 100.0 mg/kg/injection, schedule: Q01DX009 (ip), vehicle: saline
[5] = dose: 25.0 mg/kg/injection, schedule: Q01DX009 (ip), vehicle: saline
[6] = dose: 50.0 mg/kg/injection, schedule: Q01DX009 (ip), vehicle: saline
[7] = dose: 50.0 mg/kg/injection, schedule: Q01DX009 (ip), vehicle: saline with Tween-80
[8] = dose: 200.0 mg/kg/injection, schedule: Q01DX009 (ip), vehicle: saline with Tween-80
[9] = dose: 100.0 mg/kg/injection, schedule: Q01DX009 (ip), vehicle: saline with Tween-80
[10] = dose: 200.0 mg/kg/injection, schedule: Q04DX003 (ip), vehicle: saline with Tween-80
[11] = dose: 400.0 mg/kg/injection, schedule: Q01DX009 (ip), vehicle: saline with Tween-80
[12] = dose: 100.0 mg/kg/injection, schedule: Q04DX003 (ip), vehicle: saline with Tween-80
[13] = dose: 12.5 mg/kg/injection, schedule: Q01DX009 (ip), vehicle: saline with Tween-80

Measured: T/C

Cc1nc2[nH]c(=O)ccc2c(C)c1N
inactive: dose: 100.0 mg/kg/injection, schedule: Q04DX002 (ip), vehicle: saline with Tween-80 92 % of control

COC(=O)C(N)CSCSCc1ccccc1 (centres undefined)
inactive: dose: 6.25 mg/kg/injection, schedule: Q04DX003 (ip), vehicle: water 109 % of control | dose: 12.5 mg/kg/injection, schedule: Q04DX003 (ip), vehicle: water 113 % of control | dose: 25.0 mg/kg/injection, schedule: Q04DX003 (ip), vehicle: water 104 % of control | dose: 50.0 mg/kg/injection, schedule: Q04DX003 (ip), vehicle: water 100 % of control | dose: 100.0 mg/kg/injection, schedule: Q04DX003 (ip), vehicle: water 100 % of control

COC(=O)C(NC(=O)C(N)CSC(c1ccccc1)(c1ccccc1)c1ccccc1)C(C)C (centres undefined) (H-Cys(Trt)-Val-OMe; configuration not given here)
inactive: dose: 50.0 mg/kg/injection, schedule: Q01DX009 (sc), vehicle: olive oil, sesame oil, peanut oil 117 % of control | dose: 50.0 mg/kg/injection, schedule: Q04DX003 (sc), vehicle: olive oil, sesame oil, peanut oil 90 % of control | dose: 100.0 mg/kg/injection, schedule: Q01DX009 (sc), vehicle: olive oil, sesame oil, peanut oil 104 % of control | dose: 100.0 mg/kg/injection, schedule: Q04DX003 (sc), vehicle: olive oil, sesame oil, peanut oil 90 % of control | dose: 200.0 mg/kg/injection, schedule: Q01DX009 (sc), vehicle: olive oil, sesame oil, peanut oil 104 % of control | dose: 200.0 mg/kg/injection, schedule: Q04DX003 (sc), vehicle: olive oil, sesame oil, peanut oil 100 % of control

O=C1OC(=O)c2c(Br)c(Br)c(Br)c(Br)c21
inactive: [1] 109 % of control | dose: 56.25 mg/kg/injection, schedule: Q01DX009 (ip), vehicle: saline with Tween-80 90 % of control | [2] 113 % of control | [3] 109 % of control

CC(O)CN(CCN(CC(C)O)CC(C)O)CC(C)O.[Cl-].[Co+2] (centres undefined)
inactive: [4] 110 % of control

CC(C)C1C(=O)N2CCCC2C2(O)OC(NC(=O)C3C=C4c5cccc6[nH]cc(c56)CC4N(C)C3)(C(C)C)C(=O)N12 (centres undefined)
inactive: dose: 12.5 mg/kg/injection, schedule: Q01DX009 (ip), vehicle: Klucel (hydroxypropylcellulose) (HPC) 109 % of control | [5] 115 % of control | dose: 25.0 mg/kg/injection, schedule: Q04DX003 (ip), vehicle: Klucel (hydroxypropylcellulose) (HPC) 91 % of control | dose: 50.0 mg/kg/injection, schedule: Q01DX009 (ip), vehicle: Klucel (hydroxypropylcellulose) (HPC) 109 % of control | [6] 110 % of control | dose: 50.0 mg/kg/injection, schedule: Q04DX003 (ip), vehicle: Klucel (hydroxypropylcellulose) (HPC) 91 % of control | dose: 100.0 mg/kg/injection, schedule: Q01DX009 (ip), vehicle: Klucel (hydroxypropylcellulose) (HPC) 118 % of control | [4] 109 % of control and 120 % of control | dose: 100.0 mg/kg/injection, schedule: Q04DX003 (ip), vehicle: Klucel (hydroxypropylcellulose) (HPC) 104 % of control | dose: 200.0 mg/kg/injection, schedule: Q04DX003 (ip), vehicle: Klucel (hydroxypropylcellulose) (HPC) 100 % of control | dose: 200.0 mg/kg/injection, schedule: Q04DX003 (ip), vehicle: saline 120 % of control | dose: 400.0 mg/kg/injection, schedule: Q04DX003 (ip), vehicle: saline 100 % of control

C=CCCc1cc(OC)ccc1C(=O)C(C)C
inactive: [7] 112 % of control | [8] 119 % of control

Cc1ccc(S(=O)(=O)Oc2ccc([N+](=O)[O-])cc2[N+](=O)[O-])cc1
inactive: dose: 25.0 mg/kg/injection, schedule: Q04DX003 (ip), vehicle: saline 104 % of control | dose: 50.0 mg/kg/injection, schedule: Q04DX003 (ip), vehicle: saline 109 % of control | dose: 100.0 mg/kg/injection, schedule: Q04DX003 (ip), vehicle: saline 109 % of control

CC1(CO)C(O)CCC2(C)C1CCC1CC3CC12CCC3(O)CO (centres undefined)
active: [2] 155 % of control | [3] 155 % of control

COC(=O)NC1C(C)C=CC(C)C1I (centres undefined)
inactive: [9] 95 % of control | [8] 113 % of control | [10] 105 % of control | [11] 100 % of control | dose: 400.0 mg/kg/injection, schedule: Q04DX003 (ip), vehicle: saline with Tween-80 110 % of control

[N-]=[N+]=CC(=O)NCC(=O)NO
active: dose: 180.0 mg/kg/injection, schedule: Q01DX009 (ip), vehicle: water 172 % of control | dose: 270.0 mg/kg/injection, schedule: Q01DX009 (ip), vehicle: water 172 % of control | dose: 400.0 mg/kg/injection, schedule: Q01DX009 (ip), vehicle: water 204 % of control

C1CC[N-]CC1.C1CC[N-]CC1.C1CC[N-]CC1.C1CC[N-]CC1.[Cl][Co][Cl]
inactive: [1] 118 % of control | dose: 33.0 mg/kg/injection, schedule: Q01DX009 (ip), vehicle: saline with Tween-80 100 % of control | [2] 120 % of control

c1cc[n+](CCSCCSCC[n+]2ccccc2)cc1
inactive: dose: 1.56 mg/kg/injection, schedule: Q01DX009 (ip), vehicle: saline 120 % of control | dose: 2.3 mg/kg/injection, schedule: Q04DX003 (ip), vehicle: saline 122 % of control | dose: 3.0 mg/kg/injection, schedule: Q04DX003 (ip), vehicle: saline 104 % of control and 113 % of control | dose: 3.12 mg/kg/injection, schedule: Q01DX009 (ip), vehicle: saline 105 % of control | dose: 4.6 mg/kg/injection, schedule: Q04DX003 (ip), vehicle: saline 100 % of control and 109 % of control | dose: 6.25 mg/kg/injection, schedule: Q01DX009 (ip), vehicle: saline 105 % of control | dose: 6.9 mg/kg/injection, schedule: Q04DX003 (ip), vehicle: saline 109 % of control | dose: 9.2 mg/kg/injection, schedule: Q01DX009 (ip), vehicle: saline 88 % of control | dose: 9.2 mg/kg/injection, schedule: Q04DX003 (ip), vehicle: saline 100 % of control | dose: 13.0 mg/kg/injection, schedule: Q04DX003 (ip), vehicle: saline 100 % of control

CC(NC(C)(C)C)C(=O)c1cccc(Cl)c1 (centres undefined)
inactive: dose: 12.5 mg/kg/injection, schedule: Q01DX009 (ip), vehicle: saline 108 % of control | [5] 112 % of control | [6] 105 % of control

[OH-].[OH-].[Pd+2].c1ccc(CSc2ncnc3nc[nH]c23)cc1.c1ccc(CSc2ncnc3nc[nH]c23)cc1.c1ccc(CSc2ncnc3nc[nH]c23)cc1.c1ccc(CSc2ncnc3nc[nH]c23)cc1
inactive: [9] 90 % of control | [12] 90 % of control | [8] 90 % of control | [10] 90 % of control | [11] 90 % of control

CC1CN1P(=S)(Oc1ccccc1)N1CC1C (centres undefined)
inactive: dose: 264.0 mg/kg/injection, schedule: Q01DX009 (ip), vehicle: saline with Tween-80 122 % of control
active: [8] 150 % of control | dose: 300.0 mg/kg/injection, schedule: Q01DX009 (ip), vehicle: saline with Tween-80 155 % of control | [11] 150 % of control

CCCCCCCC[N+](C)(C)CCSCC[N+](C)(C)CCCCCCCC
inactive: [13] 109 % of control

CCCC(=O)OCc1ccccn1
inactive: [7] 107 % of control | [9] 102 % of control | [8] 86 % of control

Cc1ccc(C(=O)O)cc1S(=O)(=O)Cl
inactive: dose: 4.0 mg/kg/injection, schedule: Q01DX009 (ip), vehicle: saline with Tween-80 117 % of control | dose: 8.0 mg/kg/injection, schedule: Q01DX009 (ip), vehicle: saline with Tween-80 110 % of control | dose: 16.0 mg/kg/injection, schedule: Q01DX009 (ip), vehicle: saline with Tween-80 90 % of control | [1] 104 % of control | dose: 32.0 mg/kg/injection, schedule: Q01DX009 (ip), vehicle: saline with Tween-80 117 % of control | [7] 95 % of control | dose: 50.0 mg/kg/injection, schedule: Q04DX003 (ip), vehicle: saline with Tween-80 106 % of control | [9] 98 % of control | [12] 100 % of control | [8] 95 % of control

SCc1ccccn1
inactive: dose: 62.5 mg/kg/injection, schedule: Q01DX010 (ip), vehicle: carboxymethylcellulose (CMC) 110 % of control | dose: 125.0 mg/kg/injection, schedule: Q01DX010 (ip), vehicle: carboxymethylcellulose (CMC) 110 % of control | dose: 250.0 mg/kg/injection, schedule: Q01DX010 (ip), vehicle: carboxymethylcellulose (CMC) 120 % of control

CN=S(=O)(OCCCCOS(=O)(=NC)c1ccccc1)c1ccccc1 (centres undefined)
inactive: [13] 116 % of control

CC/C(C)=N/Nc1nncn2c1cc1ccccc12
inactive: [7] 94 % of control | [9] 100 % of control | [8] 97 % of control

N#CC1(NC(Cc2ccccc2)c2ccccc2)CCCCCCCCCCC1 (centres undefined)
inactive: [7] 92 % of control | [9] 86 % of control | [8] 104 % of control | [11] 102 % of control
